Reference: patent US7504513B2, “Thiazolyl-benzimidazoles” (Hoffman-La Roche Inc., priority 2006, dated 2009)

Target: T1, GST-Plk1 (Homo sapiens, UniProt P53350)
T1 construct: Full-length, active GST-Plk1 was purified from Sf9 insect cells; made in house; host or cells: Sf9 insect cells
Assay: Biochemical Characterization Assay: HTRF kinase assay, GST-Plk1 phosphorylation of GST-p53
Settings: full-length active GST-Plk1, GST-p53 substrate, ATP, 37° C. for 35 minutes, HTRF signal
Description: Full-length, active GST-Plk1 was purified from Sf9 insect cells, and full-length GST-p53 was purified in E. coli. Anti-phospho p53 antibody was purchased from Cell Signaling Technology. Europium-conjugated anti-rabbit antibody was purchased from PerkinElmer Life and Analytical Sciences. APC-conjugated anti-GST antibody was purchased from Prozyme.
To two microliters of compound (0.6 nM-4 mM) in DMSO or plain DMSO for control wells, 38 microliters of 20 mM HEPES pH 7, 50 mM NaCl, 10 mM MgCl2, 0.5 mM TCEP, 0.1 mM sodium orthovanadate, 0.1 mg/ml BSA, and 0.05% Triton X-100 (Kinase Assay Buffer) were added. Eight microliters of the compound solution were added to a 384-well black microtiter plate, followed by six microliters of GST-p53 (17 ug/ml) and ATP (333 uM) in Kinase Assay Buffer. Six microliters of GST-Plk1 (3 ug/ml) in Kinase Assay Buffer were then added and the solution incubated at 37° C. for 35 minutes. Six microliters of solution containing 43 mM EDTA to stop the reaction and a 1:600 dilution of anti-phospho-p53 antibody in 20 mM HEPES pH 7, 50 mM NaCl, and 0.5 mg/ml BSA (Antibody Binding Buffer) were added and the solution incubated at 37° C. for 30 minutes. Six microliters of solution containing 9 nM europium-conjugated anti-rabbit antibody and 120 nM APC-conjugated anti-GST antibody in Antibody Binding Buffer were then added and the mixture incubated at room temperature for 1.5 hours. The HTRF signal was read on the Envision reader (PerkinElmer Life and Analytical Sciences).

T1 sequence (P53350 whole entry): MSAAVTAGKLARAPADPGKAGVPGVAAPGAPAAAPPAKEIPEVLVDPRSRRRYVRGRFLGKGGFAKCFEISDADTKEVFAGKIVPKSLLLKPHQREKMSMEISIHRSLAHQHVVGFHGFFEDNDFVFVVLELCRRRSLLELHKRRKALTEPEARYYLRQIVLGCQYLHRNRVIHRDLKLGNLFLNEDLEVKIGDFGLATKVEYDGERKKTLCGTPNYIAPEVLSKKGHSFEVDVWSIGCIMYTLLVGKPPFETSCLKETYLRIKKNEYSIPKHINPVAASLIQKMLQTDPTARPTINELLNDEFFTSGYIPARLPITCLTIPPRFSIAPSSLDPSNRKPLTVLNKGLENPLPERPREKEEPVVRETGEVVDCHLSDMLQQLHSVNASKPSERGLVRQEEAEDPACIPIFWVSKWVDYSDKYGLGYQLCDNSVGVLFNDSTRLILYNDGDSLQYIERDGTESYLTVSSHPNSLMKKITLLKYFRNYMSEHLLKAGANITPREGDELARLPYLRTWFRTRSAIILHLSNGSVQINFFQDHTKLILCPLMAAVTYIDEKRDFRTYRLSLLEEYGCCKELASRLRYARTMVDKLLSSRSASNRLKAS

Compound: COc1cc2ncn(-c3nc(-c4cccnc4)c(C(=O)O)s3)c2cc1OC [Example 33, 2-(5,6-Dimethoxy-benzoimidazol-1-yl)-4-pyridin-3-yl-thiazole-5-carboxylic acid]
- IC50: 4410 nM

Compound: COc1cc2ncn(-c3nc(-c4cccc(O)c4)c(C(=O)O)s3)c2cc1OC [Example 34, 2-(5,6-Dimethoxy-benzoimidazol-1-yl)-4-(3-hydroxy-phenyl)-thiazole-5-carboxylic acid]
- IC50: 211 nM

Compound: COc1cc2ncn(-c3nc(-c4cccc(Cl)c4)c(C(N)=O)s3)c2cc1OC [Example 36, 4-(3-Chloro-phenyl)-2-(5,6-dimethoxy-benzoimidazol-1-yl)-thiazole-5-carboxylic acid amide]
- IC50: 431 nM

Compound: COc1cc2ncn(-c3nc(-c4ccccc4)c(C(=O)Nc4ccccc4)s3)c2cc1OC [Example 38, 2-(5,6-Dimethoxy-benzoimidazol-1-yl)-4-phenyl-thiazole-5-carboxylic acid phenylamide]
- IC50: 606 nM

Compound: O=C(O)c1sc(-n2cnc3cc(O)c(O)cc32)nc1-c1ccccc1 [Example 39, 2-(5,6-Dihydroxybenzoimidazol-1-yl)-4-phenyl-thiazole-5-carboxylic acid]
- IC50: 2020 nM

Compound: C=Cc1cccc(-c2nc(-n3cnc4cc(OC)c(OC)cc43)sc2C(=O)O)c1 [Example 40, 2-(5,6-Dimethoxy-benzoimidazol-1-yl)-4-(3-vinyl-phenyl)-thiazole-5-carboxylic acid]
- IC50: 102 nM

Compound: COc1cc2ncn(-c3nc(-c4cc(Cl)cc(Cl)c4)c(C(=O)O)s3)c2cc1OC [Example 41, 4-(3,5-Dichloro-phenyl)-2-(5,6-dimethoxy-benzoimidazol-1-yl)-thiazole-5-carboxylic acid]
- IC50: 66 nM

Compound: COc1cc2ncn(-c3nc(-c4cccc(Br)c4)c(C(=O)O)s3)c2cc1OC [Example 42, 4-(3-Bromo-phenyl)-2-(5,6-dimethoxy-benzoimidazol-1-yl)-thiazole-5-carboxylic acid]
- IC50: 40 nM

Compound: COc1cc2ncn(-c3nc(-c4cccc(C(F)(F)F)c4)c(C(=O)O)s3)c2cc1OC [Example 43, 2-(5,6-Dimethoxy-benzoimidazol-1-yl)-4-(3-trifluoromethyl-phenyl)-thiazole-5-carboxylic acid]
- IC50: 157 nM

Compound: COc1cc2ncn(-c3nc(-c4ccc(C(F)(F)F)c(Cl)c4)c(C(=O)O)s3)c2cc1OC [Example 45, 4-(3-Chloro-4-trifluoromethyl-phenyl)-2-(5,6-dimethoxy-benzoimidazol-1-yl)-thiazole-5-carboxylic acid]
- IC50: 354 nM

Compound: COc1cc2ncn(-c3nc(-c4ccc5c(ccn5C)c4)c(C(=O)O)s3)c2cc1OC [Example 46, 2-(5,6-Dimethoxy-benzoimidazol-1-yl)-4-(1-methyl-1H-indol-5-yl)-thiazole-5-carboxylic acid]
- IC50: 368 nM

Compound: COc1cc2ncn(-c3nc(-c4ccc(F)c(F)c4)c(C(=O)O)s3)c2cc1OC [Example 47, 4-(3,4-Difluoro-phenyl)-2-(5,6-dimethoxy-benzoimidazol-1-yl)-thiazole-5-carboxylic acid]
- IC50: 542 nM

Compound: COCCOc1cc2ncn(-c3nc(-c4ccccc4)c(C(=O)O)s3)c2cc1OCCOC [Example 48, 2-[5,6-Bis-(2-methoxy-ethoxy)-benzoimidazol-1-yl]-4-phenyl-thiazole-5-carboxylic acid]
- IC50: 819 nM

Compound: COc1cc2ncn(-c3nc(-c4cccc(CO)c4)c(C(=O)O)s3)c2cc1OC [Example 49, 2-(5,6-Dimethoxy-benzoimidazol-1-yl)-4-(3-hydroxymethyl-phenyl)-thiazole-5-carboxylic acid]
- IC50: 1080 nM

Compound: COc1cc2ncn(-c3nc(-c4ccc5c(c4)OCCO5)c(C(=O)O)s3)c2cc1OC [Example 50, 4-(2,3-Dihydro-benzo[1,4]dioxin-6-yl)-2-(5,6-dimethoxy-benzoimidazol-1-yl)-thiazole-5-carboxylic acid]
- IC50: 2340 nM

Compound: C=Cc1ccc(-c2nc(-n3cnc4cc(OC)c(OC)cc43)sc2C(=O)O)cc1 [Example 51, 2-(5,6-Dimethoxy-benzoimidazol-1-yl)-4-(4-vinyl-phenyl)-thiazole-5-carboxylic acid]
- IC50: 2670 nM

Compound: COc1cc2ncn(-c3nc(-c4cccc(C(=O)N(C)C)c4)c(C(=O)O)s3)c2cc1OC [Example 52, 2-(5,6-Dimethoxy-benzoimidazol-1-yl)-4-(3-dimethylcarbamoyl-phenyl)-thiazole-5-carboxylic acid]
- IC50: 8870 nM

Compound: COc1cc2ncn(-c3nc(-c4cccc(Cl)c4)c(C(=O)NNC(=O)c4cccs4)s3)c2cc1OC [Example 53, Thiophene-2-carboxylic acid N′-[4-(3-chloro-phenyl)-2-(5,6-dimethoxybenzoimidazol-1-yl)-thiazole-5-carbonyl]-hydrazide]
- IC50: 18 nM

Compound: COc1cc2ncn(-c3nc(-c4cccc(Cl)c4)c(C(=O)Nc4ccncn4)s3)c2cc1OC [Example 54, 4-(3-Chloro-phenyl)-2-(5,6-dimethoxy-benzoimidazol-1-yl)-thiazole-5-carboxylic acid pyrimidin-4-ylamide]
- IC50: 47 nM

Compound: COc1cccc(NC(=O)c2sc(-n3cnc4cc(OC)c(OC)cc43)nc2-c2cccc(Cl)c2)c1 [Example 55, 4-(3-Chloro-phenyl)-2-(5,6-dimethoxy-benzoimidazol-1-yl)-thiazole-5-carboxylic acid (3-methoxy-phenyl)-amide]
- IC50: 250 nM

Compound: COc1cc2ncn(-c3nc(-c4cccc(Cl)c4)c(C(=O)Nc4nccs4)s3)c2cc1OC [Example 56, 4-(3-Chloro-phenyl)-2-(5,6-dimethoxy-benzoimidazol-1-yl)-thiazole-5-carboxylic acid thiazol-2-ylamide]
- IC50: 252 nM

Compound: COc1cc2ncn(-c3nc(-c4cccc(Cl)c4)c(C(=O)Nn4cnnc4)s3)c2cc1OC [Example 57, 4-(3-Chloro-phenyl)-2-(5,6-dimethoxy-benzoimidazol-1-yl)-thiazole-5-carboxylic acid [1,2,4]triazol-4-ylamide]
- IC50: 344 nM

Compound: COc1cc2ncn(-c3nc(-c4cccc(Cl)c4)c(C(=O)NNC(=O)c4cccc(C)c4)s3)c2cc1OC [Example 58, 3-Methyl-benzoic acid N′-[4-(3-chloro-phenyl)-2-(5,6-dimethoxy-benzoimidazol-1-yl)-thiazole-5-carbonyl]-hydrazide]
- IC50: 586 nM

Compound: COc1cc2ncn(-c3nc(-c4cccc(Cl)c4)c(C(=O)Nc4cc[nH]c(=O)n4)s3)c2cc1OC [Example 60, 4-(3-Chloro-phenyl)-2-(5,6-dimethoxy-benzoimidazol-1-yl)-thiazole-5-carboxylic acid (2-oxo-1,2-dihydro-pyrimidin-4-yl)-amide]
- IC50: 4430 nM

Compound: O=C(O)c1sc(-n2cnc3cccc(O)c32)nc1-c1ccccc1 [Example 61, 2-(7-Hydroxy-benzoimidazol-1-yl)-4-phenyl-thiazole-5-carboxylic acid]
- IC50: 4680 nM

Compound: COc1ccc2c(c1)ncn2-c1nc(-c2ccccc2)c(C(=O)O)s1 [Example 62, 2-(5-Methoxy-benzoimidazol-1-yl)-4-phe-nyl-thiazole-5-car-boxylic acid]
- IC50: 261 nM

Compound: COc1cc2ncn(-c3nc(-c4ccnc(Cl)c4)c(C(=O)O)s3)c2cc1OC [Example 64, 4-(2-Chloro-pyridin-4-yl)-2-(5,6-dimethoxy-benzoimidazol-1-yl)-thiazole-5-carboxylic acid]
- IC50: 75 nM
